Test results taken from patent US12295970B2, “Imidazoquinoline compounds and prodrugs thereof” (UNIVERSITY OF KANSAS, priority 2019, dated 2025).

Columns and labels:
mast cell tumors = conditions: 86 canine patients (7 complete response and 25 partial response); cited from earlier work
[1] = In vitro release kinetics (dialysis method); type: physicochemical
Method: Solutions (1 mL) of free R848 in DMSO, R848/HA-Toco in water, R848-Toco in DMSO, and R848-Toco/HA-Toco in water, with a concentration of 1 mg/mL on R848 basis were dialyzed using SnakeSkin® dialysis tubing (MWCO […]) against 30 mL of phosphate buffered saline release medium (PBS, 10 mM sodium phosphate, 137 mM NaCl, pH 7.4) with 0.5% (w/v) polysorbate 80 at 37° C. At predetermined time points, 1 mL aliquots of release medium were sampled and replaced with an equal volume of fresh medium. The samples were kept frozen (−20° C.) until HPLC analysis.
Results: The in vitro release profiles of R848 and R848-Toco from the HA-Toco were studied using a dialysis method. […] The release of parent R848 formulated with HA-Toco was tested in PBS media, with free R848 dissolved in DMSO as a control. Similar release kinetics were observed whether R848 was formulated with HA-Toco or without ([…]), and in both conditions nearly 100% of the agonist was released over 24 h (FIG. 4A).

Hydrolysis of R848-Toco = type: physicochemical
Method: For hydrolysis, R848-Toco (0.1 mg) was dissolved in 1 mL of DMSO, and the solution was added into 9 mL of hydrolysis media (PBS or 0.5% (w/v) polysorbate 80/PBS). The solution was then rapidly mixed and filtered using a syringe filter (0.22 μm×13 mm, nylon). The filtrate was then incubated at 37° C. under agitation (250 rpm). At predetermined time points, 50 μL of the solution was sampled and analyzed immediately by HPLC.

human TLR7 (hTLR7) = target: T1, human TLR7 (hTLR7) (Homo sapiens, UniProt Q9NYK1); assay: In vitro TLR7 activity assay (HEK-Blue hTLR7, QUANTI-Blue, Example 3); type: cell-based; conditions: 16 h incubation; Null 1-k subtracted
T1 construct: host or cells: HEK-293 (HEK-Blue hTLR7)
T1 sequence (Q9NYK1 27-1049): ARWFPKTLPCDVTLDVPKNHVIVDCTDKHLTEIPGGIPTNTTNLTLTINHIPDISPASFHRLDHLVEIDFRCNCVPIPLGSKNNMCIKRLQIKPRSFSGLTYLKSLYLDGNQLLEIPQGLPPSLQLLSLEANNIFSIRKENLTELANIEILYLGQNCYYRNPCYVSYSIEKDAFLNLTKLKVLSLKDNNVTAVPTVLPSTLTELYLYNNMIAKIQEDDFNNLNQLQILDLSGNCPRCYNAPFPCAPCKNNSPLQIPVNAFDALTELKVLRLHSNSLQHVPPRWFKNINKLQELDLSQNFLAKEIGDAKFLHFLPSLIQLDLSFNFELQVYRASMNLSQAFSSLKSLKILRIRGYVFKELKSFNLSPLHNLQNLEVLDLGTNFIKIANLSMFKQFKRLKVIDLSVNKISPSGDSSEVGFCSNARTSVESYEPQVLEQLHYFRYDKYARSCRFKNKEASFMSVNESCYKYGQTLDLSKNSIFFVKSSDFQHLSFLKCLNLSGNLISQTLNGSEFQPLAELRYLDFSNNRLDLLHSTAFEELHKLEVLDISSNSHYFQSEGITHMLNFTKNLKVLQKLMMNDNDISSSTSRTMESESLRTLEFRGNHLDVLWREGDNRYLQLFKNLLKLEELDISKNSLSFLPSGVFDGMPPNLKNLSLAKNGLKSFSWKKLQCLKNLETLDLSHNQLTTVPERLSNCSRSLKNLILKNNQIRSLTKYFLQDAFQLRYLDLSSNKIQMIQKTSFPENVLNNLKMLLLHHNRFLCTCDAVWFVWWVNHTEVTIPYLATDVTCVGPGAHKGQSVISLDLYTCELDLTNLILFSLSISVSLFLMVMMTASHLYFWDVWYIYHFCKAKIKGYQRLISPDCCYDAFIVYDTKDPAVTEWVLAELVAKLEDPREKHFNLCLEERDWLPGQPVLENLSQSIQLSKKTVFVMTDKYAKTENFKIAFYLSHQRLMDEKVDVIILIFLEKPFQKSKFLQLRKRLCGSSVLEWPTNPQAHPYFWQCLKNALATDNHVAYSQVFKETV
Method: TLR agonist activity was measured in a dose-response study using reporter cell lines expressing the human TLR7 (hTLR7). […] The hTLR7 activity of R848-Toco, the formulation and its components were assessed using HEK-293 cells co-transfected with the hTLR7 gene and an inducible SEAP reporter gene along with the corresponding null control line (HEK-Blue™ hTLR7 and Null-1k cells, Invivogen). Cells were maintained in DMEM media with selective antibiotics according to the manufacturer protocol.^26 HEK-Blue™ cells were seeded into 96 well plates at a density of 220,000 cells/mL with 180 μL/well of culture medium. Stock solutions in DMSO were first serially diluted to seven concentrations (DMSO solutions further diluted into H2O). Each well was stimulated with 20 μL of agonists or agonist-free controls (equivalent concentration of HA-Toco, D-α-Tocopherol succinate, PBS or […] DMSO) at the determined final concentrations in 5 replicates. After 16 h of incubation at 37° C. in a 5% CO2 atmosphere, 20 μL of the supernatant from each well was sampled and spiked into 180 μL of QUANTI-Blue™ solution followed by incubation for 1 h at 37° C. Relative hTLR7 activity was then analyzed by UV-Vis at 637 nm using a microplate UV reader (SpectraMAX GeminiXS, Molecular Devices, San Jose, CA, USA). For each compound and concentration, a corresponding sample was applied to the HEK-Blue™ Null-1k cell line. The TLR7 agonist activity was determined after averaging across hTLR7 replications and subtracting the averaged Null response.
Activation levels were calculated as the difference between the average readings of the hTLR7 cell line and the Null 1-k cell line, to account for non-hTLR7 related induction of NF-κB. […] Therefore, this study confirmed that R848-Toco, formulated with HA-Toco as an emulsion, maintained its TLR agonist activity. […]

canine PBMCs = assay: In vitro cytokine secretion assay in canine PBMCs (Example 3); type: cell-based; conditions: 15 hours, ELISA
Excerpt: As a TLR7/8 agonist, R848 binds to endosomal TLR7 and 8 receptors located on antigen presenting cells (APCs). The activation of APCs produces pro-inflammatory cytokines including TNF-α, type I IFN and IL-12. These cytokines, together with stimulated APCs that take up tumor antigens, enhance the activation of anti-tumor Th-1 immune responses that involve both CD4^+ T helper cells and CD8^+ cytotoxic T cells.^16 To evaluate the Th-1 associated cytokine production in vitro, isolated canine PBMCs were treated with R848, formulated or unformulated R848-Toco, and the secretion of TNF-α and IL-12 were measured by ELISA as markers of generalized inflammatory response. Canines were chosen as a model over mice because of the greater genetic similarity to humans and more similar immune systems.^46 Peripheral blood from healthy canine donors of 7-10 years age (similar to the age of typical canines with cancer^14) was obtained with appropriate informed consent of the owner. Blood (8 mL per tube) was drawn via sterile venipuncture into a BD Vacutainer cell preparation tube containing sodium heparin (BD Biosciences). PBMCs were isolated within one hour following procurement by density gradient centrifugation according to the manufacturer protocol and resuspended to 3×10^6 cells/mL in sterile RPMI 1640 medium with L-glutamine (Gibco) supplemented with 100 IU/mL penicillin, 100 μg/mL streptomycin (Corning) and 10% (v/v) heat-inactivated Fetalgro (RMBIO). Corning 3917, 96-well tissue culture treated plates were seeded with the PBMC suspension (180 μL/well), 20 μL of the serially diluted R848 samples were added in triplicate and HA-Toco vehicle in duplicate to yield the desired concentrations in a 1% (v/v) DMSO cell suspension. […] Sample cytokine concentrations were determined by interpolation of a four-parameter logistic curve of the recombinant standards using GraphPad Prism 6. […] Cytokine secretion levels were measured by ELISA (Duoset, R&D Systems, Minneapolis, MN, USA) according to the manufacturer protocol.

[2] = Solubility in water (in words); type: physicochemical

SMILES | response rate (mast cell tumors) | released over the first 24 h ([1]; 0.5% w/v polysorbate 80 solution of PBS) | release profile (in words) ([1]; PBS, pH 7.4) | hydrolyzed products observed by HPLC (Hydrolysis of R848-Toco; hydrolysis sample at 8 h) | R848-Toco hydrolyzed to R848 (Hydrolysis of R848-Toco; initial 8 h, 37° C.) | hTLR7 activation (NF-κB, in words) (human TLR7 (hTLR7)) | IL-12 levels (canine PBMCs) | solubility in water [2]
Cc1[nH]c(/C=C2\C(=O)Nc3ccc(F)cc32)c(C)c1C(=O)NCCN1CCCC1.O=P(O)(O)O [toceranib phosphate] | 37.2% |  |  |  |  |  |  | 
CCOCc1nc2c(N)nc3ccccc3c2n1CC(C)(C)OC(=O)CCC(=O)Oc1c(C)c(C)c2c(c1C)CC[C@@](C)(CCC[C@H](C)CCC[C@H](C)CCCC(C)C)O2 [Compound R848-Toco] |  | 76% | burst release within the first half hour | R848, which was the only observed hydrolyzed product | 72% | much less active | lower expression | poorly soluble in water
